# Reference: patent publication US11957680B2, “Pyruvate kinase activators for use in treating blood disorders” (Agios Pharmaceuticals, Inc., priority 2017, dated 2024)
# Experiments:
# wild type PKR [1] = target: T1, wild type PKR (Homo sapiens, UniProt P30613); assay: PKR (wild type) enzyme AC50 assay, LDH/NADH-coupled, absorbance at 340 nm; format: biochemical; conditions: Table 2, enzyme assay; for AC50: read-out: PKR WT AC50
# Description: (§1) Example 11. PKR Mutant Assay
# (§2) PKR or PKR mutant enzyme solution was diluted into a reaction mix, which contains 1× buffer (100 mM KCl, 50 mM Tris pH 7.5, 5 mM MgCl2) as well as PEP (conc depends on enzyme), 180 μM NADH, 0.5 units LDH, 1 mM DTT, 0.03% BSA; final assay concentrations after 1.11 fold dilution are indicated.
# (§3) 2 μL of test compound was added into wells first, and then 180 μL reaction mix was added.
# (§4) Reactions mixture with test compound was assembled except for ADP, and plates were stored for 60 minutes at room temperature.
# (§5) 20 uL ADP was added to start reaction at room temperature and reaction progress was measured as changes in absorbance at 340 nm wavelength at room temperature.
# (§6) Test Compound Preparation:
# (§7) Test compound stock was made at 100× concentration in 100% DMSO (10 mM)
# (§8) 1 to 3 dilutions were made for 11 points (i.e. 50 μl of first concentration added to 100 μl 100% DMSO to yield 3.33 mM, 50 μl of this added to 100 μl DMSO to yield 1.11 mM, and so forth) • 1 to 100 dilution into assay (2 μl in 200 μl) yielded starting concentration of 100 μM, decreasing 3 fold for 11 points.
# (§9) Assay Buffer: 100 mM KCl, 50 mM Tris 7.5, 5 mM MgCl2, 1 mM DTT, 0.03% BSA
# (§10) Reaction Mixture: PKR mutant enzyme: 40-400 ng/well; ADP: 0.2-1.65 mM; PEP: 0.1-0.5 mM; NADH: 180 μM; LDH: 0.5 units (Sigma #59023); DTT: 1 mM; BSA: 0.03%.
# PKR K410E = PKR K410E (Homo sapiens, UniProt P30613, K410E); assay: PKR mutant assay (K410E), AC50, LDH/NADH-coupled, absorbance at 340 nm; format: biochemical; conditions: Table 2; enzyme assay
# Description: as §1, §2, §3, §4, §5, §6, §7, §8, §9, §10
# PKR R510Q = PKR R510Q (Homo sapiens, UniProt P30613, R510Q); assay: PKR mutant assay (R510Q), AC50, LDH/NADH-coupled, absorbance at 340 nm; format: biochemical; conditions: Table 2, enzyme assay; for AC50: read-out: PK R510Q AC50
# Description: as §1, §2, §3, §4, §5, §6, §7, §8, §9, §10
# wild type PKR [2] = target: T1, wild type PKR; assay: Cell based ATP assay in purified red blood cells (Cell-Titer-Glo); design: endogenous in cells; host or cells: purified red blood cells from healthy volunteers; conditions: Table 2; RBCs, overnight at 37° C., ATP levels
# Description: Example 16. Red Blood Cell (RBC) Purification
# Fresh blood drawn from healthy volunteers into K2EDTA tubes was collected. Whole blood was pelleted by spinning at 500 g for 10 minutes. Cut transfusion bag port off of Purecell leukocyte reduction neofilter (Fisher NC0267633) one (1) inch above filter. Attach a 10 ml syringe barrel to the remaining cut tubing attached to neofilter. The plasma layer was removed from the pellet of the whole blood and the pellet was resuspended in 2× volume of phosphate buffered saline (PBS). Transfer 9 ml re-suspended blood cell pellet to prepared 10 ml syringe that is attached to the neofilter. Allow whole blood to gravity flow through filter until all fluid runs through upper tubing into filter disc. Add plunger to the syringe, remove syringe from clamp and invert the filter, then plunge air through the syringe filter system. Using a new 5 ml syringe, remove filtered RBCs from the bag by the syringe port and transfer purified RBCs to a 5 ml snap cap tube that has been incubated on ice. Spin 5 ml snap cap tube at 500 g for 10 minutes at 15 C, aspirate supernatant and resuspend in AGAM (1×PBS, 1% glucose, 170 mg/L adenine, 5.25 g/L mannitol) at a density of 4×10^9 cells/mL.
# Example 17. Cell Based ATP Assay
# For cell based ATP assays, the compound as described herein was prepared in 100% DMSO as a 10 mM stock. Serial dilutions (1:4) were performed in 96-well V-bottom storage plate and then added 1:100 to 96-well V-bottom plates containing AGAM. RBCs were diluted in AGAM media to a density of 1×10^7 cells/mL before added 90 μL/well to black clear bottom assay plates (final compound concentration at 0.1% DMSO concentration). Assay plates were sealed using aluminum foil seals and incubated overnight at 37° C. in a humidified chamber. ATP levels were read out using Cell-Titer-Glo (Promega).
# T1 sequence (P30613 whole entry): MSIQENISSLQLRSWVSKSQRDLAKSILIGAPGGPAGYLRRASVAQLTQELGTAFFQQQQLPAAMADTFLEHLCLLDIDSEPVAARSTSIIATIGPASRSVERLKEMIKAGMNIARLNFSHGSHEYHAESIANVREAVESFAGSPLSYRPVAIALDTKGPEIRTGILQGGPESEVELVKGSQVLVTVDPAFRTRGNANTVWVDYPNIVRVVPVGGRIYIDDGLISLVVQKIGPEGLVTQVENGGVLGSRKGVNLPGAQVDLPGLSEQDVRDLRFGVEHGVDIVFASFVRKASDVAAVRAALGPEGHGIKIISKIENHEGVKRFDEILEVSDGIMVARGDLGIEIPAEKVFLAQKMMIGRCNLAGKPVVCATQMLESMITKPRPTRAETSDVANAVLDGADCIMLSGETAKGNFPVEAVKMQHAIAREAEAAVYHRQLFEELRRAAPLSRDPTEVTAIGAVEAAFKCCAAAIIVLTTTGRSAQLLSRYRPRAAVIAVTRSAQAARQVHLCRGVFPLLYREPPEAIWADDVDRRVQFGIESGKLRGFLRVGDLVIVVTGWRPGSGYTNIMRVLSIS
# Sequence of PKR R510Q (P30613 whole entry R510Q): as the sequence (P30613 whole entry) above, with R510Q counted along it
# Sequence of PKR K410E (P30613 whole entry K410E): as the sequence (P30613 whole entry) above, with K410E counted along it
SMILES,AC50 (wild type PKR [1]) [nM],AC50 (PKR K410E) [nM],AC50 (PKR R510Q) [nM],AC50 (wild type PKR [2]) [nM],PK R510Q AC50 (PKR R510Q),PKR WT AC50 (wild type PKR [1]),PKR K410E AC50 (PKR K410E),Cell based ATP assay AC50 (wild type PKR [2])
Cn1c2nc([S+](C)[O-])sc2c2cnn(Cc3cccc4c3CCNC4)c(=O)c21 (stereo not drawn) [Compound 80],> 800,> 800,< 300,> 1000,–,–,–,–
Cn1c2nc([S+](C)[O-])sc2c2cnn(Cc3csc(N)n3)c(=O)c21 (stereo not drawn) [Compound 83],< 300,< 300,< 300,≤ 1000,–,–,–,–
CC(=O)c1cccc(Cn2ncc3c4sc([S+](C)[O-])nc4n(C)c3c2=O)c1 (stereo not drawn) [Compound 86],< 300,> 800,> 800,> 1000,–,–,–,–
CC(O)c1cccc(Cn2ncc3c4sc([S+](C)[O-])nc4n(C)c3c2=O)c1 (stereo not drawn) [Compound 88],< 300,301 to 800,301 to 800,≤ 1000,–,–,–,–
Cn1c2nc([S+](C)[O-])sc2c2cnn(Cc3ccc4c(c3)OCCO4)c(=O)c21 (stereo not drawn) [Compound 90],< 300,< 300,< 300,> 1000,–,–,–,–
Cn1c2nc([S+](C)[O-])sc2c2cnn(Cc3cnc(N)nc3)c(=O)c21 (stereo not drawn) [Compound 94],> 800,> 800,–,> 1000,No Fit,–,–,–
CSc1nc2c(s1)c1cnn(Cc3cnc(=O)[nH]c3)c(=O)c1n2C [Compound 95],–,–,–,–,No Fit,No Fit,No Fit,No Fit
CSc1nc2c(s1)c1cnn(Cc3ccnc(=O)[nH]3)c(=O)c1n2C [Compound 96],> 800,> 800,–,–,No Fit,–,–,No Fit
Cn1c2nc([S+](C)[O-])sc2c2cnn(Cc3ccnc(N)n3)c(=O)c21 (stereo not drawn) [Compound 97],> 800,> 800,> 800,> 1000,–,–,–,–

# The remaining lines, values ahead:
AC50 (wild type PKR [1]) [nM],AC50 (PKR K410E) [nM],AC50 (PKR R510Q) [nM],AC50 (wild type PKR [2]) [nM],PK R510Q AC50 (PKR R510Q),PKR WT AC50 (wild type PKR [1]),PKR K410E AC50 (PKR K410E),Cell based ATP assay AC50 (wild type PKR [2]),SMILES
< 300,< 300,< 300,≤ 1000,–,–,–,–,Cn1c2nc(Cc3cc[nH]n3)sc2c2cnn(Cc3cccc4[nH]ncc34)c(=O)c21 [Compound 81]
< 300,301 to 800,301 to 800,> 1000,–,–,–,–,Cn1c2nc(C(N)=O)sc2c2cnn(Cc3cccc4[nH]ncc34)c(=O)c21 [Compound 82]
< 300,301 to 800,301 to 800,> 1000,–,–,–,–,Cn1c2nc(C#N)sc2c2cnn(Cc3cccc4[nH]ncc34)c(=O)c21 [Compound 84]
< 300,301 to 800,< 300,≤ 1000,–,–,–,–,CSc1nc2c(s1)c1cnn(Cc3cccc(C(C)(C)O)c3)c(=O)c1n2C [Compound 85]
< 300,< 300,301 to 800,≤ 1000,–,–,–,–,Cn1c2nc([S+](C)[O-])sc2c2cnn(Cc3cccc(C(C)(C)O)c3)c(=O)c21 (stereo not drawn) [Compound 87]
< 300,< 300,< 300,≤ 1000,–,–,–,–,Cn1c2nc(Cc3cccc(O)c3)sc2c2cnn(Cc3cccc4[nH]ncc34)c(=O)c21 [Compound 89]
< 300,< 300,< 300,≤ 1000,–,–,–,–,Cn1c2nc(Cc3ccccc3)sc2c2cnn(Cc3cccc4[nH]ncc34)c(=O)c21 [Compound 91]
< 300,301 to 800,301 to 800,≤ 1000,–,–,–,–,Cn1c2nc(S(C)(=O)=O)sc2c2cnn(Cc3cccc4[nH]ncc34)c(=O)c21 [Compound 92]
> 800,> 800,> 800,> 1000,–,–,–,–,Cn1c2nc(Cc3ccc(C#N)cc3)sc2c2cnn(Cc3cccc4[nH]ncc34)c(=O)c21 [Compound 93]
